Laboratory results as given in the supplement of paper PMC4862054.

Key:
MFM-223 [1] = conditions: 72 h
How it was run: (§1)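 In this assay, breast cancer cell lines spent 72 h with compound at 5 concentrations in 10-fold steps over a compound-specific 10,000-fold range. The first readout was cell death by CellTox Green fluorescence, and the second was viability by CellTiter-Glo luminescence, each normalised per plate to 0.1 % DMSO and a positive kill control. EC50 came from the dose-response curves, censored at the top concentration.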

DU-4475 [2] = conditions: 72 h
How it was run: as §1

HCC1599 [3] = conditions: 72 h
How it was run: as §1

HDQ-P1 [4] = conditions: 72 h
How it was run: as §1

CAL-148 [5] = conditions: 72 h
How it was run: as §1

HCC1143 [6] = conditions: 72 h
How it was run: as §1

CAL-85-1 [7] = experiment: drug sensitivity score (DSS), CellTiter-Glo (DSS (AUC-based score)); higher = stronger drug effect (viability inhibition or cytotoxicity); extreme values may be limits of the assay; conditions: incubation time: 72 h
How it was run: (§2)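 Each compound occupied 5 concentrations in 10-fold steps over its own 10,000-fold range in 384-well plates, into which breast cancer cell lines were seeded as 20 µl suspension. Following 72 h of incubation, CellTox Green fluorescence (485/520 nm) was measured, and CellTiter-Glo luminescence was measured after 10 min at room temperature. Plates were individually normalised to 0.1 % DMSO and a positive kill control. From the area under the fitted dose-response curve, a drug sensitivity score was calculated.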

CAL-148 [8] = experiment: as above; conditions: incubation time: 72 h
How it was run: as §2

MFM-223 [9] = conditions: 72 h; remark: listed apart in the source
Experimental: (§3)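 Drug sensitivity and resistance testing (DSRT) of breast cancer cell lines in 384-well plates, 5 concentrations in 10-fold dilutions over a compound-specific 10,000-fold range. After 72 h, cytotoxicity was read by CellTox Green fluorescence and viability by CellTiter-Glo luminescence (multiplexed), normalised to DMSO and benzethonium chloride controls. EC50 is the inflection point of the fitted dose-response curve (bottom asymptote free, so it can be relative for partial curves) and is censored at the highest tested concentration. Rows with DSS 0 (no meaningful response) were excluded.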

BT-549 [10] = conditions: 72 h
Experimental: as §3

BT-474 [11] = conditions: 72 h
Experimental: as §3

Hs578T [12] = conditions: 72 h
Experimental: as §3

HCC1599 [13] = conditions: 72 h; remark: listed apart in the source
Experimental: as §3

MDA-MB-231 [14] = conditions: 72 h
Experimental: as §3

MDA-MB-468 [15] = conditions: 72 h
Experimental: as §3

CAL-85-1 [16] = conditions: 72 h
Experimental: as §3

CAL-51 [17] = conditions: 72 h
Experimental: as §3

MCF-10A = conditions: 72 h
Experimental: as §3

SK-BR-3 = conditions: 72 h
How it was run: (§4)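 Plates of 384 wells holding compound in 5 µl medium received breast cancer cell lines in 20 µl suspension and were incubated 72 h. CellTiter-Blue (2.5 µl, 2 h, 37 °C) was used for viability, read at 560/590 nm, and every plate was normalised to vehicle and a positive kill control and assessed by Z'-factor. The EC50 derives from a percent-inhibition dose-response curve fit censored at the highest concentration, leaving out rows whose drug sensitivity score was zero.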

MFM-223 [18] = conditions: 72 h; remark: listed apart in the source
How it was run: as §4

BT-549 [19] = conditions: 72 h; remark: listed apart in the source
How it was run: as §4

BT-474 [20] = conditions: 72 h; remark: listed apart in the source
How it was run: as §4

Hs578T [21] = conditions: 72 h; remark: listed apart in the source
How it was run: as §4

HCC1599 [22] = conditions: 72 h; remark: listed apart in the source
How it was run: as §4

MDA-MB-231 [23] = conditions: 72 h; remark: listed apart in the source
How it was run: as §4

MDA-MB-436 [24] = conditions: 72 h
How it was run: as §4

MDA-MB-468 [25] = conditions: 72 h; remark: listed apart in the source
How it was run: as §4

CAL-120 [26] = conditions: 72 h
How it was run: as §4

HCC1143 [27] = conditions: 72 h; remark: listed apart in the source
How it was run: as §4

HCC1937 [28] = conditions: 72 h
How it was run: as §4

DU-4475 [29] = conditions: 72 h; remark: listed apart in the source
How it was run: as §4

CAL-85-1 [30] = conditions: 72 h; remark: listed apart in the source
How it was run: as §4

CAL-51 [31] = conditions: 72 h; remark: listed apart in the source
How it was run: as §4

HDQ-P1 [32] = conditions: 72 h; remark: listed apart in the source
How it was run: as §4

CAL-148 [33] = conditions: 72 h; remark: listed apart in the source
How it was run: as §4

MDA-MB-436 [34] = conditions: 72 h; remark: listed apart in the source
Experimental: as §3

CAL-148 [35] = conditions: 72 h; remark: listed apart in the source
Experimental: as §3

CAL-120 [36] = conditions: 72 h; remark: listed apart in the source
Experimental: as §3

HCC1143 [37] = conditions: 72 h; remark: listed apart in the source
Experimental: as §3

MDA-MB-453 = conditions: 72 h
Experimental: as §3

HDQ-P1 [38] = conditions: 72 h; remark: listed apart in the source
Experimental: as §3

HCC1937 [39] = conditions: 72 h; remark: listed apart in the source
Experimental: as §3

Compound | EC50, CellTiter-Glo (MFM-223 [1]) [µM] | EC50, CellTiter-Glo (HCC1599 [3]) [µM] | EC50, CellTiter-Glo (HDQ-P1 [4]) [µM] | EC50, CellTiter-Glo (CAL-148 [5]) [µM] | drug sensitivity score (CAL-85-1 [7]) | drug sensitivity score (CAL-148 [8]) | EC50, CellTox Green (MFM-223 [9]) [µM] | EC50, CellTox Green (BT-474 [11]) [µM] | EC50, CellTox Green (MDA-MB-231 [14]) [µM] | EC50, CellTox Green (MDA-MB-468 [15]) [µM] | EC50, CellTox Green (CAL-85-1 [16]) [µM] | EC50, CellTox Green (CAL-51 [17]) [µM] | EC50, CellTox Green (MCF-10A) [µM] | EC50, CellTiter-Blue viability (SK-BR-3) [µM] | EC50, CellTiter-Blue viability (MFM-223 [18]) [µM] | EC50, CellTiter-Blue viability (BT-549 [19]) [µM] | EC50, CellTiter-Blue viability (BT-474 [20]) [µM] | EC50, CellTiter-Blue viability (Hs578T [21]) [µM] | EC50, CellTiter-Blue viability (MDA-MB-231 [23]) [µM] | EC50, CellTiter-Blue viability (MDA-MB-436 [24]) [µM] | also measured
CC[C@]1(O)C[C@H]2CN(CCc3c([nH]c4ccccc34)[C@@](C(=O)OC)(c3cc4c(cc3OC)N(C=O)[C@H]3[C@@](O)(C(=O)OC)[C@H](OC(C)=O)[C@]5(CC)C=CCN6CC[C@]43[C@@H]65)C2)C1 [Vincristine] | 0.0199 | 0.0111 | 0.00222 | 0.00648 | 19.2 | 12.7 | 0.02 | 0.00419 | 0.00549 | 0.0096 | 0.00239 | 0.0281 | 0.0041 | 0.000608 | 0.0169 | 0.0038 | 0.0003 | 0.00272 | 0.00249 | 0.00821 | EC50, CellTiter-Glo (DU-4475 [2]): 0.157 µM; EC50, CellTiter-Glo (HCC1143 [6]): 0.00331 µM; EC50, CellTox Green (BT-549 [10]): 0.0091 µM; EC50, CellTox Green (Hs578T [12]): 0.0851 µM; EC50, CellTox Green (HCC1599 [13]): 0.489 µM; EC50, CellTiter-Blue viability (HCC1599 [22]): 0.0277 µM; EC50, CellTiter-Blue viability (MDA-MB-468 [25]): 0.0006 µM; EC50, CellTiter-Blue viability (CAL-120 [26]): 0.001 µM; EC50, CellTiter-Blue viability (HCC1143 [27]): 0.00162 µM; EC50, CellTiter-Blue viability (HCC1937 [28]): 0.00357 µM; EC50, CellTiter-Blue viability (DU-4475 [29]): 0.0179 µM; EC50, CellTiter-Blue viability (CAL-85-1 [30]): 0.00533 µM; EC50, CellTiter-Blue viability (CAL-51 [31]): 0.0267 µM; EC50, CellTiter-Blue viability (HDQ-P1 [32]): 0.0112 µM; EC50, CellTiter-Blue viability (CAL-148 [33]): 0.00872 µM
C/C(=C\c1csc(C)n1)[C@@H]1C[C@@H]2O[C@]2(C)CCC[C@H](C)[C@H](O)[C@@H](C)C(=O)C(C)(C)[C@@H](O)CC(=O)O1 [Patupilone] | 0.156 | 0.584 | 0.0667 | 0.03 | 16.3 | 10.2 | 0.609 | 0.0351 | 0.136 | 0.00167 | 0.0533 | 0.00263 | 0.145 | 0.00558 | 0.013 | 0.00438 | 0.0109 | 0.0067 | 0.00095 | 0.00726 | EC50, CellTiter-Glo (DU-4475 [2]): 0.0938 µM; EC50, CellTiter-Glo (HCC1143 [6]): 0.0189 µM; EC50, CellTox Green (Hs578T [12]): 0.206 µM; EC50, CellTox Green (MDA-MB-436 [34]): 0.00893 µM; EC50, CellTox Green (CAL-148 [35]): 0.0348 µM; EC50, CellTox Green (CAL-120 [36]): 0.163 µM; EC50, CellTox Green (HCC1143 [37]): 0.596 µM; EC50, CellTiter-Blue viability (HCC1599 [22]): 0.211 µM; EC50, CellTiter-Blue viability (MDA-MB-468 [25]): 0.00277 µM; EC50, CellTiter-Blue viability (CAL-120 [26]): 0.00813 µM; EC50, CellTiter-Blue viability (HCC1143 [27]): 0.00987 µM; EC50, CellTiter-Blue viability (HCC1937 [28]): 0.00226 µM; EC50, CellTiter-Blue viability (DU-4475 [29]): 0.0111 µM; EC50, CellTiter-Blue viability (CAL-85-1 [30]): 0.00156 µM; EC50, CellTiter-Blue viability (CAL-51 [31]): 0.0114 µM; EC50, CellTiter-Blue viability (HDQ-P1 [32]): 0.0165 µM; EC50, CellTiter-Blue viability (CAL-148 [33]): 0.00313 µM
CCCCCCCCc1ccc(CCC(N)(CO)CO)cc1 [Fingolimod] | 6.92 | 9.54 | 6.87 | 9.19 | 5.32 | 1.1 | > 10 | 3.46 | 2.65 | 2.51 | 2.04 | 7.86 | 1.11 | 3.87 | 4.43 | 2.22 | 3.94 | 3.44 | 2.14 | 1.78 | EC50, CellTox Green (BT-549 [10]): 8.7 µM; EC50, CellTox Green (MDA-MB-436 [34]): 8.12 µM; EC50, CellTox Green (MDA-MB-453): 7.63 µM; EC50, CellTox Green (HDQ-P1 [38]): 7.66 µM; EC50, CellTox Green (HCC1937 [39]): 0.32 µM; EC50, CellTiter-Blue viability (MDA-MB-468 [25]): 3.55 µM; EC50, CellTiter-Blue viability (CAL-120 [26]): 2.38 µM; EC50, CellTiter-Blue viability (HCC1937 [28]): 2.96 µM; EC50, CellTiter-Blue viability (CAL-85-1 [30]): 5.29 µM; EC50, CellTiter-Blue viability (HDQ-P1 [32]): 5.35 µM
